Experiments:
Type in all cases: in vivo
[1] = test system: beet; assay: Test Example 3: soil treatment, effect on crop; f: beet; conditions: soil treatment, treatment dosage 315 g/ha
Text: (§1) Weedkilling Efficacy Test Through Soil Treatment
(§2) Sterilized diluvial soil was introduced into 21 cm long, 13 cm wide, 7 cm deep plastic boxes, and seeds of crabgrass, green foxtail, barnyard grass, wild oat, black-grass, Italian ryegrass, common wind-grass, Indian mallow, redroot pigweed, fig-leafed goosefoot, chickweed, catchweed, birds-eye speedwell, corn, soybean, rice, wheat, beet and rapeseed were each spot-sown, and covered with about 1.5 cm of soil. Next, emulsions of compounds of the present invention prepared according to compounding example 2 were diluted with water to give the specified dosages, and applied uniformly onto the soil surface with a small sprayer. The plants were grown by placing the plastic boxes in a greenhouse at 25 to 30° C., and 3 weeks after the pesticide treatment the effect on each type of plant was investigated on the basis of the assessment criteria of test example 1.
(§3) A: barnyard grass, B: bulrush, C: oval-leafed pondweed, D: crabgrass, E: green foxtail, F: barnyard grass, G: wild oat, H: black-grass, I: Italian ryegrass, J: common wind-grass, K: Indian mallow, L: redroot pigweed, M: fig-leafed goosefoot, N: chickweed, O: catchweed, p: birds-eye speedwell, a: transplanted rice, b: directly sown rice, c: corn, d: soybean, e: wheat, f: beet, g: rapeseed
(§4) Further, pesticide dosage (g/ha) indicates the concentration regulated such that treatment was with only the stated number of grams (g), when calculated per hectare (ha).

[2] = test system: black-grass; assay: Test Example 3: weedkilling efficacy through soil treatment; H: black-grass; conditions: soil treatment, treatment dosage 315 g/ha
Text: as §1, §2, §3, §4

[3] = test system: chickweed; assay: Test Example 3: weedkilling efficacy through soil treatment; N: chickweed; conditions: soil treatment, treatment dosage 315 g/ha
Text: as §1, §2, §3, §4

[4] = test system: oval-leafed pondweed; assay: Test Example 2: weedkilling efficacy, growth period weed treatment in the submerged state; C: oval-leafed pondweed; conditions: treatment dosage 252 g/ha
Procedure, shortened: (§5)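 Seedlings at 1-2 leaves in 4 cm-deep submerged alluvial soil received emulsion formulations on the water surface, dosed per hectare; effects were judged 3 weeks on.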

[5] = test system: bulrush; assay: Test Example 1: weedkilling efficacy, preemergent weed treatment in the submerged state; B: bulrush; conditions: treatment dosage 252 g/ha
Procedure, shortened: (§6)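 Pre-emergence paddy test: weed seeds sown in submerged alluvial soil (4 cm water), 2.5-leaf rice transplanted, water-diluted emulsion applied to water surface at sowing at stated g/ha. Scored at 3 weeks, greenhouse 25–30 °C.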

[6] = test system: soybean; assay: Test Example 3: soil treatment, effect on crop; d: soybean; conditions: soil treatment, treatment dosage 315 g/ha
Text: as §1, §2, §3, §4

[7] = test system: green foxtail; assay: Test Example 3: weedkilling efficacy through soil treatment; E: green foxtail; conditions: soil treatment, treatment dosage 315 g/ha
Text: as §1, §2, §3, §4

[8] = test system: Italian ryegrass; assay: Test Example 3: weedkilling efficacy through soil treatment; I: Italian ryegrass; conditions: soil treatment, treatment dosage 315 g/ha
Text: as §1, §2, §3, §4

[9] = test system: redroot pigweed; assay: Test Example 3: weedkilling efficacy through soil treatment; L: redroot pigweed; conditions: soil treatment, treatment dosage 315 g/ha
Text: as §1, §2, §3, §4

[10] = test system: wheat; assay: Test Example 3: soil treatment, effect on crop; e: wheat; conditions: soil treatment, treatment dosage 315 g/ha
Text: as §1, §2, §3, §4

[11] = test system: wild oat; assay: Test Example 3: weedkilling efficacy through soil treatment; G: wild oat; conditions: soil treatment, treatment dosage 315 g/ha
Text: as §1, §2, §3, §4

[12] = test system: transplanted rice; assay: Test Example 1: preemergent weed treatment in the submerged state, effect on crop; a: transplanted rice; conditions: treatment dosage 252 g/ha
Procedure, shortened: as §6

[13] = test system: crabgrass; assay: Test Example 3: weedkilling efficacy through soil treatment; D: crabgrass; conditions: soil treatment, treatment dosage 315 g/ha
Text: as §1, §2, §3, §4

[14] = test system: barnyard grass; assay: Test Example 1: weedkilling efficacy, preemergent weed treatment in the submerged state; A: barnyard grass; conditions: treatment dosage 252 g/ha
Procedure, shortened: as §6

[15] = test system: fig-leafed goosefoot; assay: Test Example 3: weedkilling efficacy through soil treatment; M: fig-leafed goosefoot; conditions: soil treatment, treatment dosage 315 g/ha
Text: as §1, §2, §3, §4

[16] = test system: directly sown rice; assay: Test Example 3: soil treatment, effect on crop; b: directly sown rice; conditions: soil treatment, treatment dosage 315 g/ha
Text: as §1, §2, §3, §4

[17] = test system: Indian mallow; assay: Test Example 3: weedkilling efficacy through soil treatment; K: Indian mallow; conditions: soil treatment, treatment dosage 315 g/ha
Text: as §1, §2, §3, §4

[18] = test system: barnyard grass; assay: Test Example 2: weedkilling efficacy, growth period weed treatment in the submerged state; A: barnyard grass; conditions: treatment dosage 252 g/ha
Procedure, shortened: as §5

[19] = test system: oval-leafed pondweed; assay: Test Example 1: weedkilling efficacy, preemergent weed treatment in the submerged state; C: oval-leafed pondweed; conditions: treatment dosage 252 g/ha
Procedure, shortened: as §6

[20] = test system: bulrush; assay: Test Example 2: weedkilling efficacy, growth period weed treatment in the submerged state; B: bulrush; conditions: treatment dosage 252 g/ha
Procedure, shortened: as §5

[21] = test system: corn; assay: Test Example 3: soil treatment, effect on crop; c: corn; conditions: soil treatment, treatment dosage 315 g/ha
Text: as §1, §2, §3, §4

Compound	f: beet, effect on crop grade [1]	H: black-grass, weedkilling efficacy grade [2]	N: chickweed, weedkilling efficacy grade [3]	C (oval-leafed pondweed) weedkilling efficacy grade [4]	B: bulrush, weed kill grade [5]	d: soybean, effect on crop grade [6]	E: green foxtail, weedkilling efficacy grade [7]	I: Italian ryegrass, weedkilling efficacy grade [8]	L: redroot pigweed, weedkilling efficacy grade [9]	e: wheat, effect on crop grade [10]	G: wild oat, weedkilling efficacy grade [11]	a: transplanted rice, effect on crop grade [12]	D: crabgrass, weedkilling efficacy grade [13]	A: barnyard grass, weed kill grade [14]	M: fig-leafed goosefoot, weedkilling efficacy grade [15]	b: directly sown rice, effect on crop grade [16]	K: Indian mallow, weedkilling efficacy grade [17]	A (barnyard grass) weedkilling efficacy grade [18]	C: oval-leafed pondweed, weed kill grade [19]	B (bulrush) weedkilling efficacy grade [20]	other results
CC(C)(C(=O)Nc1cc(C(F)(F)F)cc(Cl)n1)N1COCN(c2ccccc2)C1=O [A-2-28]	5 (weed kill ratio 90% or more, (practically complete withering))	5 (weed kill ratio 90% or more, (practically complete withering))	5 (weed kill ratio 90% or more, (practically complete withering))	5 (weed kill ratio 90% or more, (practically complete withering))	5 (weed kill ratio 90% or more, (practically complete withering))	3 (weed kill ratio 40% or more, less than 70%)	5 (weed kill ratio 90% or more, (practically complete withering))	5 (weed kill ratio 90% or more, (practically complete withering))	4 (weed kill ratio 70% or more, less than 90%)	1 (weed kill ratio 5% or more, less than 20%)	5 (weed kill ratio 90% or more, (practically complete withering))	2 (weed kill ratio 20% or more, less than 40%)	5 (weed kill ratio 90% or more, (practically complete withering))	5 (weed kill ratio 90% or more, (practically complete withering))	5 (weed kill ratio 90% or more, (practically complete withering))	5 (weed kill ratio 90% or more, (practically complete withering))	4 (weed kill ratio 70% or more, less than 90%)	5 (weed kill ratio 90% or more, (practically complete withering))	5 (weed kill ratio 90% or more, (practically complete withering))	5 (weed kill ratio 90% or more, (practically complete withering))	c: corn, effect on crop grade [21]: 1 (weed kill ratio 5% or more, less than 20%)
Cc1cc(NC(=O)C(C)(C)N2COCN(c3ccccc3)C2=O)sn1 [A-1-10]	4 (weed kill ratio 70% or more, less than 90%)	2 (weed kill ratio 20% or more, less than 40%)	0 (weed kill ratio 5% or less (practically no effect))	0 (weed kill ratio 5% or less (practically no effect))	5 (weed kill ratio 90% or more, (practically complete withering))	0 (weed kill ratio 5% or less (practically no effect))	4 (weed kill ratio 70% or more, less than 90%)	4 (weed kill ratio 70% or more, less than 90%)	4 (weed kill ratio 70% or more, less than 90%)	0 (weed kill ratio 5% or less (practically no effect))	0 (weed kill ratio 5% or less (practically no effect))	0 (weed kill ratio 5% or less (practically no effect))	4 (weed kill ratio 70% or more, less than 90%)	3 (weed kill ratio 40% or more, less than 70%)	4 (weed kill ratio 70% or more, less than 90%)	0 (weed kill ratio 5% or less (practically no effect))	3 (weed kill ratio 40% or more, less than 70%)	0 (weed kill ratio 5% or less (practically no effect))	3 (weed kill ratio 40% or more, less than 70%)	5 (weed kill ratio 90% or more, (practically complete withering))	c: corn, effect on crop grade [21]: 0 (weed kill ratio 5% or less (practically no effect))
Cc1cnc(NC(=O)C(C)(C)N2COCN(c3ccccc3)C2=O)s1 [A-1-08]	0 (weed kill ratio 5% or less (practically no effect))	5 (weed kill ratio 90% or more, (practically complete withering))	2 (weed kill ratio 20% or more, less than 40%)	3 (weed kill ratio 40% or more, less than 70%)	5 (weed kill ratio 90% or more, (practically complete withering))	0 (weed kill ratio 5% or less (practically no effect))	5 (weed kill ratio 90% or more, (practically complete withering))	4 (weed kill ratio 70% or more, less than 90%)	4 (weed kill ratio 70% or more, less than 90%)	0 (weed kill ratio 5% or less (practically no effect))	3 (weed kill ratio 40% or more, less than 70%)	0 (weed kill ratio 5% or less (practically no effect))	5 (weed kill ratio 90% or more, (practically complete withering))	5 (weed kill ratio 90% or more, (practically complete withering))	2 (weed kill ratio 20% or more, less than 40%)	4 (weed kill ratio 70% or more, less than 90%)	1 (weed kill ratio 5% or more, less than 20%)	4 (weed kill ratio 70% or more, less than 90%)	5 (weed kill ratio 90% or more, (practically complete withering))	5 (weed kill ratio 90% or more, (practically complete withering))	c: corn, effect on crop grade [21]: 1 (weed kill ratio 5% or more, less than 20%)

From patent US9738634B2, “Heterocyclic amide compound and herbicide” (SYNGENTA PARTICIPATIONS AG, priority 2013, dated 2017)
